From patent US6500811B2, “Sulfonylaminophosphinic and sulfonylaminophosphonic acid derivatives, methods for their preparation and use” (Aventis Pharma Deutschland GmbH, priority 1998, dated 2002)

How the values were obtained:
Assay type in all cases: biochemical
[1] = molecular target: T1, neutrophil collagenase (MMP-8) (Homo sapiens, UniProt P22894); experiment: Enzymatic activity of the catalytic domain of neutrophil collagenase, fluorogenic substrate; conditions: pH 6.5, 15 min preincubation
T1 construct: catalytic domain of human stromelysin and of neutrophil collagenase; made in house
Procedure: (§1) Preparation and determination of the enzymatic activity of the catalytic domain of human stromelysin and of neutrophil collagenase.
(§2) The two enzymes—stromelysin (“MMP-3”) and neutrophil collagenase (“MMP-8”)—were prepared according to Ye et al., 31 BIOCHEMISTRY 11231 (1992). For the measurement of the enzyme activity or of the enzyme inhibitor action, 70 μl of buffer solution and 10 μl of enzyme solution are incubated for 15 minutes with 10 μl of a 10% strength (v/v) aqueous dimethyl sulfoxide solution which optionally contains the enzyme inhibitor. After addition of 10 μl of a 10% strength (v/v) aqueous dimethyl sulfoxide solution which contains 1 mmol/l of the substrate, the enzyme reaction is monitored by fluorescence spectroscopy (328 nm (ex)/393 nm(em)).
(§3) The enzyme activity is shown as extinction increase/minute. The IC50 values listed in Table 2 are determined as those inhibitor concentrations which in each case lead to a 50% inhibition of the enzyme.
(§4) The buffer solution contains 0.05% Brij (Sigma, Deisenhofen, Germany) and 0.1 mol/l of tris/HCl, 0.1 mol/l of NaCl, 0.01 mol/l of CaCl2 and 0.1 mol/l of piperazine-N,N′-bis[2-ethanesulfonic acid] (pH=6.5).
(§5) The enzyme solution contains 5 μg/ml of one of the enzyme domains prepared according to Ye et al. The substrate solution contains 1 mmol/l of the fluorogenic substrate (7-methoxycoumarin4-yl)acetyl-Pro-Leu-Gly-Leu-3-(2′,4′-dinitrophenyl)-L-2,3-diaminopropionyl-Ala-Arg-NH2 (Bachem, Heidelberg, Germany).

aggrecanase = experiment: Aggrecanase activity from rat chondrosarcoma cell supernatant, rAgg1mut cleavage detected by BC-3 Western blot; conditions: RCS cell culture supernatant, 1 h preincubation, 4 h incubation with rAgg1mut
Procedure: Preparation and determination of the enzymatic activity of the catalytic domain of aggrecanase using rat chondrosarcoma cells:
For the generation of the as yet not identified “aggrecanase” activity, rat chondrosarcoma cells (RCS) were used. Lark et al.; 270 J. BIOL. CHEM. 2550 (1995). These cells were inoculated into 96-well cell culture plates precoated with poly-L-lysine (80,000 cells/well). After stimulation of the RCS cells with retinoic acid (0.67 μM) and an incubation time of 47 hours (h) at 37° C. and 5% CO2, these cells generate the “aggrecanase” activity. The test substance compound 1 was then preincubated for 1 h in the “aggrecanase”-containing cell culture supernatant before 5 μg of eucaryotic rAgg1mut (Buttner et al., 333 BIOCHEM. J. 159 (1998); Hughes et al., 272 J. BIOL. CHEM. 20269 (1997)) were added for the detection of the “aggrecanase” cleavage activity in the cell culture supernatant of the RCS cells. After an incubation time of 4 h, the cell culture supernatant was removed and the cleavage products of the rAgg1mut fusion proteins generated by the “aggrecanase” activity were detected by means of SDS-polyacrylamide gel electrophoresis and Western Blot analyses with the monoclonal antibody BC-3. Hughes et al., 305 BIOCHEM. J. 799 (1995). […] The less cleaved rAgg1mut was detected, the more efficacious was the tested compound of the formula I.
The IC50 values listed in Table 3 are determined as those inhibitor concentrations which in each case led to a 50% inhibition of the enzyme aggrecanase.

stromelysin (MMP-3) = molecular target: T2, stromelysin (MMP-3) (Homo sapiens, UniProt P08254); experiment: Enzymatic activity of the catalytic domain of human stromelysin, fluorogenic substrate; conditions: pH 6.5, 15 min preincubation
T2 construct: enzymatic activity of the catalytic domain of human stromelysin; made in house
Procedure: as §1, §2, §3, §4, §5

T1 sequence (P22894 100-262 limits assumed): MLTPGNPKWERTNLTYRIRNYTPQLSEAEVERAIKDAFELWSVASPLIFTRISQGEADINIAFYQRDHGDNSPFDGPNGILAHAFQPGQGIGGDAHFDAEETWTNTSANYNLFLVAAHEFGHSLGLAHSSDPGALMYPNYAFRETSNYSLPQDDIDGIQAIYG
T2 sequence (P08254 100-272 limits assumed): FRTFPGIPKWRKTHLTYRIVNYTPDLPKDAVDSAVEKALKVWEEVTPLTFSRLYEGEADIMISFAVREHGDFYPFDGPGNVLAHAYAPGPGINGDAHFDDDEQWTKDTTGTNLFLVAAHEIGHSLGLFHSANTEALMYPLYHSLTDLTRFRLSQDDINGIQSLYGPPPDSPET

Row | SMILES | IC50 [1] [µM] | IC50 (aggrecanase) [µM] | IC50 (stromelysin (MMP-3)) [µM]
1 | CCOP(=O)(O)C(NS(=O)(=O)c1ccc(-c2ccc(Cl)cc2)cc1)c1ccccc1 (racemic) [Example 2, Monoethyl (R,S)-[1-(4′-chlorobiphenyl-4-sulfonylamino)-1-phenylmethyl]phosphonate] | 0.2 | 79 | 5
2 | COP(=O)(OC)C(O)CC(NS(=O)(=O)c1ccc(-c2ccc(Cl)cc2)cc1)c1ccc(C(F)(F)F)cc1 (stereo not drawn) [Example 10] |  | 2.1 | 
3 | O=C(O)C(CCP(=O)(O)O)NS(=O)(=O)c1ccc(-c2ccc(Cl)cc2)cc1 (stereo not drawn) [Example 14] |  | 55 | 
4 | CCOP(=O)(O)C(O)CC(NS(=O)(=O)c1ccc(-c2ccc(Cl)cc2)cc1)c1ccccc1 (stereo not drawn) [Example 15] |  | 67 | 
5 | O=C(O)C(CP(=O)(O)O)NS(=O)(=O)c1ccc(-c2ccc(N3CCCC3)cc2)cc1 (stereo not drawn) [Example 17] |  | 69 | 
6 | CC(C)[C@@H](NS(=O)(=O)c1ccc(-c2ccc(Cl)cc2)cc1)P(=O)(O)O [Example 18] | 1 | 60 | 10
7 | CC(C)[C@H](NS(=O)(=O)c1ccc(-c2ccc(N3CCCC3)cc2)cc1)P(=O)(O)O [Example 19] | 0.002 |  | 0.005
8 | CCCCOc1ccc(S(=O)(=O)N[C@@H](C(C)C)P(=O)(O)O)cc1 [Example 24] | 0.03 |  | 0.4
9 | CC(C)[C@H](NS(=O)(=O)CCc1ccc(-c2ccc(Cl)cc2)cc1)P(=O)(O)O [Example 25] | 0.002 |  | 0.003

Further lines, results first:

Row | IC50 [1] [µM] | IC50 (aggrecanase) [µM] | IC50 (stromelysin (MMP-3)) [µM] | SMILES
10 | 0.007 | 22 | 0.1 | O=P(O)(O)C(NS(=O)(=O)c1ccc(-c2ccc(Cl)cc2)cc1)c1ccccc1 (racemic) [Example 3, (R,S)-[(4′-Chlorobiphenyl-4-sulfonylamino)phenylmethyl]-phosphonic acid]
11 | 0.06 | 12 | 0.5 | O=P(O)(O)C(Cc1c[nH]c2ccccc12)NS(=O)(=O)c1ccc(-c2ccc(Cl)cc2)cc1 (racemic) [Example 4, (R,S)-[1-(4′-Chlorobiphenyl-4-sulfonylamino)-2-(1H-indol-3-yl)-ethyl]phosphonic acid]
12 | 0.005 | 25 | 0.1 | CC(NS(=O)(=O)c1ccc(-c2ccc(Cl)cc2)cc1)P(=O)(O)O (racemic) [Example 5, (R,S)-[1-(4′-Chlorobiphenyl-4-sulfonylamino)ethyl]phosphonic acid]
13 | 0.003 | 2.4 | 0.03 | CC(C)CC(NS(=O)(=O)c1ccc(-c2ccc(Cl)cc2)cc1)P(=O)(O)O (racemic) [Example 6, (R,S)-[1-(4′-chlorobiphenyl-4-sulfonylamino)-3-methylbutyl]-phosphonic acid]
14 | 0.001 | 0.6 | 0.006 | CC(C)[C@H](NS(=O)(=O)c1ccc(-c2ccc(Cl)cc2)cc1)P(=O)(O)O [Example 1, (R)-[1-(4′-Chlorobiphenyl-4-sulfonylamino)-2-methylpropyl]-phosphonic acid]
15 |  | 15 |  | O=P(O)(O)C(O)CC(NS(=O)(=O)c1ccc(-c2ccc(Cl)cc2)cc1)c1ccccc1 (stereo not drawn) [Example 8]
16 |  | 50 |  | O=C(O)C(CP(=O)(O)O)NS(=O)(=O)c1ccc(-c2ccc(Cl)cc2)cc1 (stereo not drawn) [Example 12]
17 |  | 50 |  | O=P(O)(O)CCNS(=O)(=O)c1ccc(-c2ccc(Cl)cc2)cc1 [Example 13]
18 |  | 28 |  | O=P(O)(O)CCNS(=O)(=O)c1ccc(-c2ccc(N3CCCC3)cc2)cc1 [Example 16]
19 | 0.002 | 4.7 | 0.008 | CC(NS(=O)(=O)CCc1ccc(-c2ccc(Cl)cc2)cc1)P(=O)(O)O (stereo not drawn) [Example 20]
20 |  | 0.52 |  | O=C(O)C(CCC(NS(=O)(=O)c1ccc(-c2ccc(Cl)cc2)cc1)P(=O)(O)O)NS(=O)(=O)c1ccc(-c2ccc(Cl)cc2)cc1 (stereo not drawn) [Example 21]
21 | 0.02 | 8.3 | 0.02 | CC(NS(=O)(=O)c1ccc(-c2ccc(N3CCCC3)cc2)cc1)P(=O)(O)O (stereo not drawn) [Example 22]
